{"source": "patent US20240287463A1", "about": "“INDUCIBLE TISSUE CONSTRUCTS AND USES THEREOF” (Massachusetts Institute of Technology, priority 2020, published 2024)", "assay_type_in_all_cases": "cell-based", "key": {"iCasp9-GFP J2 population": {"system": "iCasp9-GFP J2 population", "assay": "fibroblast removal from 2D micropatterned co-cultures (MPCC)", "settings": "50 nM CID", "from_the_text": "Specifically, MPCC were fabricated as described previously (S. R. Khetani and S. N. Bhatia (2005) Nat. Biotechnol 26, 120; S. March et al. (2015) Nat. Protoc. 10, 2007). Briefly, collagen was adsorbed in each well of a 96 well plate (glass bottom), and then patterned using an elastomeric polydimethysiloxane mold and oxygen plasma gas ablation. Human hepatocytes were thawed and seeded (70 k/well) on the collagen islands (500 μm with 1,200 μm center-to-center spacing). Adhered hepatocytes (˜10 k/well) were allowed to spread overnight before fibroblasts were seeded for co-culture (7 k/well). Supernatant was collected from cultures every other day and stored at −20° C. Human albumin was quantified using an enzyme-linked immunosorbent assay using a sheep anti-rat albumin antibody (ELISA) (Bethyl Laboratories) and 3,3′,5,5′-tetramethylbenzidine (TMB, Thermo Fisher). Urea concentration was measured using a colorimetric (diacetylmonoxime) assay with acid and heat (Stanbio Labs). CYP3A4 activity was assessed with the luminogenic P450-GloTM CYP450 assay kit (Promega) for nonlytic assays using cultured cells. Cultures were pre-treated with 2 μM rifampin or 1:1,000 DMSO vehicle control prepared in hepatocyte maintenance media for 72 hours (daily replenishment) where indicated. […]"}, "[1]": {"system": "primary human hepatocytes", "assay": "hepatocyte albumin and urea in tri-culture microfluidic devices", "settings": "50 nM CID after 5 days of tri-culture", "from_the_text": "(§1) Specifically, MPCC were fabricated as described previously (S. R. Khetani and S. N. Bhatia (2005) Nat. Biotechnol 26, 120; S. March et al. (2015) Nat. Protoc. 10, 2007). Briefly, collagen was adsorbed in each well of a 96 well plate (glass bottom), and then patterned using an elastomeric polydimethysiloxane mold and oxygen plasma gas ablation. Human hepatocytes were thawed and seeded (70 k/well) on the collagen islands (500 μm with 1,200 μm center-to-center spacing). Adhered hepatocytes (˜10 k/well) were allowed to spread overnight before fibroblasts were seeded for co-culture (7 k/well). Supernatant was collected from cultures every other day and stored at −20° C. Human albumin was quantified using an enzyme-linked immunosorbent assay using a sheep anti-rat albumin antibody (ELISA) (Bethyl Laboratories) and 3,3′,5,5′-tetramethylbenzidine (TMB, Thermo Fisher). Urea concentration was measured using a colorimetric (diacetylmonoxime) assay with acid and heat (Stanbio Labs). CYP3A4 activity was assessed with the luminogenic P450-GloTM CYP450 assay kit (Promega) for nonlytic assays using cultured cells. Cultures were pre-treated with 2 μM rifampin or 1:1,000 DMSO vehicle control prepared in hepatocyte maintenance media for 72 hours (daily replenishment) where indicated.\nGiven that fibroblasts are only transiently required for supporting the formation of a functional vasculature, it was investigated whether CAMEO could be used in the vascularization of tissue constructs with organ-specific parenchymal cells without negatively affecting the function of the parenchymal cells. To investigate this, a tri-culture system of HUVECs, iCasp9-HDFs, and primary human hepatocytes was employed in the microfluidic device. […] To evaluate whether the hepatocytes remained functional after CID treatment, levels of albumin and urea, markers for hepatic protein synthesis function and nitrogen metabolism, respectively, were measured in the media."}, "iCasp9-GFP fibroblasts": {"system": "iCasp9-GFP fibroblasts", "assay": "viability of hydrogel-encapsulated monoculture fibroblasts"}, "[2]": {"system": "primary human hepatocytes", "assay": "hepatocyte function and toxicity in 3D spheroid-laden hydrogels after fibroblast deletion", "from_the_text": "as §1\n(§2) Previous work identified that phenotypic stability and longevity of primary hepatocytes cultured as 3D microtissues were transiently supported by pre-aggregation to increase homotypic cell-cell interactions, and were further enhanced upon inclusion of J2 fibroblasts (C. Y. Li et al. (2014) Tissue Eng. Part A 20, 2200). Thus, iCasp9-GFP J2 fibroblasts were incorporated into these 3D hepatic ensembles, which were fabricated by plating primary human hepatocytes and fibroblasts in microwells in order to facilitate physical cell-cell contacts, as previously described (K. Stevens et al. (2013) Nat. Commun. 4, 1847; K. R. Stevens et al. (2017) Sci. Transl. Med. 9, eaaah5505). Specifically, cryopreserved 365 human hepatocytes were thawed and immediately plated with fibroblasts in AggreWells (400 μm pyramidal microwells) and incubated overnight. Hepatic spheroids (about 150 hepatocytes per spheroid, ˜100 μm diameter) were imaged and analyzed to quantify the extent of spheroid compaction. Individual spheroids were isolated manually using Fiji, (J. Schindelin et al. (2012) Nat. Methods 9, 676). […] Resulting morphologies were traced and measured for circularity. […]\n(§3) To probe the dependence of hepatocyte phenotypic stability on fibroblast co-culture in 3D, fibroblasts were deleted from spheroid-laden hydrogel cultures using CAMEO after 1 day of hepatocyte-fibroblast co-culture. Fibroblasts were robustly removed from 3D co-cultures as described in the above Examples, and detected by immunofluorescence imaging (FIG. 3I). […]"}, "iCasp9-GFP J2s": {"system": "iCasp9-GFP J2s", "assay": "fibroblast deletion from 3D spheroid-laden hydrogels", "from_the_text": "as §2, with “Specifically, cryopreserved 365 human hepatocytes were thawed and immediately plated with fibroblasts in AggreWells (400 μm pyramidal microwells) and incubated overnight.” left out, “compaction.” for “compaction. Individual spheroids were isolated manually using Fiji, (J. Schindelin et al. (2012) Nat. Methods 9, 676).”\nas §3"}, "[3]": {"settings": "spheroid-laden hydrogel cultures, data not shown"}}, "data": [{"smiles": "CC[C@H](C(=O)N1CCCC[C@H]1C(=O)O[C@H](CCc1ccc(OC)c(OC)c1)c1cccc(OCC(=O)NCC(CNC(=O)COc2cccc([C@@H](CCc3ccc(OC)c(OC)c3)OC(=O)[C@@H]3CCCCN3C(=O)[C@@H](CC)c3cc(OC)c(OC)c(OC)c3)c2)CN(C)C)c1)c1cc(OC)c(OC)c(OC)c1", "note": "[CID, AP20187]", "values": [{"measurement": "removal of fibroblasts from MPCC", "setting": "iCasp9-GFP J2 population", "result": "selective removal of the iCasp9-GFP J2 population"}, {"measurement": "secretive functions of the hepatocytes", "setting": "[1]", "result": "did not negatively affect"}, {"measurement": "secreted albumin versus vehicle control", "setting": "[1]; day 7", "result": "statistically higher level"}, {"measurement": "secreted urea versus vehicle control", "setting": "[1]; day 7", "result": "statistically higher level"}, {"measurement": "fibroblast viability", "setting": "iCasp9-GFP fibroblasts; hydrogel-encapsulated, after 6 hours of CID", "result": "undetectable"}, {"measurement": "fibroblast regrowth", "setting": "iCasp9-GFP fibroblasts; over the course of 21 days after CID", "result": "did not regrow"}, {"measurement": "hepatocyte function", "setting": "[2]; 50 nM CID after 3 or 7 days of co-culture", "result": "negatively impacted"}, {"measurement": "hepatocyte phenotype by albumin secretion rate", "setting": "[2]; CID after 1 day of co-culture, followed up to 3 weeks", "result": "stable phenotype"}, {"measurement": "hepatocyte function, CID pre- versus post-encapsulation in fibrin", "setting": "[2]; data not shown", "result": "No difference"}, {"measurement": "toxicity to co-cultured hepatocytes", "setting": "[2]; [3]", "result": "without any apparent toxicity"}, {"measurement": "iCasp9-GFP staining", "setting": "iCasp9-GFP J2s; 50 nM CID at day 1, imaged starting at day 2", "result": "negligible"}, {"measurement": "deletion of iCasp9-GFP J2s throughout the hydrogel", "setting": "iCasp9-GFP J2s; [3]", "result": "robust and specific deletion"}]}]}
